Experimental findings from patent US12226400B2, “Neuroprotective disruption of Kv2.1/syntaxin interaction by small molecules” (UNIVERSITY OF PITTSBURGH-OF THE COMMONWEALTH SYSTEM OF …, priority 2018, dated 2025) are described below.

Test [1] addresses T1, munc18/syntaxin 1A (Homo sapiens, UniProt Q16623).
T1 construct: syntaxin 1A plasmid a gift RC204873; host or cells: HEK293
In words: Co-immunoprecipitation of munc18 and syntaxin in transfected HEK293 cells. Particulars: mean±SEM. The class given is cell-based. The method, then: Western Blot. Co-immunoprecipitation of munc18 and syntaxin was carried out using PEI transfection of HEK293 cells (American Type Culture Collection) plated and maintained in DMEM medium with 10% FBS and penicillin/streptomycin. 24 hr prior to transfection, HEK293 cells are plated onto 150 mm petri dishes from confluent T75 flasks at the ratio of 2/3 flask per plate. 24 hr after plating, PEI transfection was carried out by mixing 25% munc18 (OriGene RC204873), 25% syntaxin 1A (gift from Raymond A Frizzell, Children's Hospital of Pittsburgh), and 50% pcDNA3 (Invitrogen) plasmids ([…] total plasmids with 500 μl medium without penicillin/streptomycin, and 110 μl PEI at 1 mg/ml). The PEI was lastly added to the mixture drop-wise to avoid clumping of the DNA precipitates. This transfection reagent was allowed to incubate in room temperature for at least 5 min. The HEK293 medium was replaced with medium without penicillin/streptomycin prior to the addition of the transfection mixture. At 24 hr after transfection, the transfection medium was replaced with regular medium containing either cpd5 or DMSO. The cells were lysed and protein was harvested 24 hr after cpd5/DMSO treatment using 200 μl NP40 buffer (Invitrogen) containing phenylmethylsulfonyl fluoride (PMSF, Sigma-Aldrich) and protease inhibitor cocktail (¼ tablet, cOmplete Mini, EDTA-free, Sigma-Aldrich). The resulting HEK293 sample was immunoprecipitated using mouse anti-syntaxin 1A antibody (abeam). The western blot was probed using the Biogen system with the same syntaxin 1A antibody and mouse anti-Flag (Sigma-Aldrich) used for the detection of munc18. Quantification of protein pulldown was normalized to the syntaxin signal before comparisons. SDS-PAGE in this study are run in 10% acrylamide. Small variations in band separation are caused by the semi-wet transfer method.

Test [2] deals with delayed rectifier K+ currents (Kv2.1-mediated) in rat cortical culture neurons. In words: Whole-cell patch clamp of delayed rectifier K+ currents after TBOA. The class given is cell-based. Particulars: Cpd5 incubation alone, 5 hours total. On the procedure:
Cortical culture electrophysiology. Whole-cell patch-clamp experiments were performed on rat cortical culture neurons prepared as described in the LDH toxicity experiments. The TBOA treatment was reduced in severity in this experiment to limit extensive cell injury that would prevent adequate patch clamp recordings. Prior to recording, coverslips were treated with 50 μM TBOA in MHB for 2 hr. The treatment was terminated with 3×MHB washes and transferring the coverslip to a separate well containing MHB to rest for 2 hr prior to electrophysiology recordings and to allow for the expression of enhanced currents. For cpd5-treated groups, cells were pre-incubated for 1 hr in 10 μM cpd5 prior to the addition of TBOA. Cpd5 was also present during the TBOA and the post-TBOA incubation phases.
Recordings were carried out using 1.5 mm diameter borosilicate glass electrodes (Sutter Instruments) made from a horizontal pipette puller at 5-7 MΩ. The internal solution contains (in mM): 100 K-gluconate, 10 KCl, 1 MgCl2, 1 CaCl2, 10 HEPES, 11 EGTA, 2.2 ATP, 0.33 GTP. The internal solution was further adjusted to pH 7.2 and to 280 mOsm with the addition of sucrose. The pH adjusted (7.2) external solution was composed of the following (in mM): 115 NaCl, 2.5 KCl, 2.0 MgCl2, 10 HEPES, 10 D-glucose, and 0.25 μM TTX. […]
In general terms: In patch-clamp work, channel activity is measured electrically.

T1 sequence (Q16623 whole entry, species assumed): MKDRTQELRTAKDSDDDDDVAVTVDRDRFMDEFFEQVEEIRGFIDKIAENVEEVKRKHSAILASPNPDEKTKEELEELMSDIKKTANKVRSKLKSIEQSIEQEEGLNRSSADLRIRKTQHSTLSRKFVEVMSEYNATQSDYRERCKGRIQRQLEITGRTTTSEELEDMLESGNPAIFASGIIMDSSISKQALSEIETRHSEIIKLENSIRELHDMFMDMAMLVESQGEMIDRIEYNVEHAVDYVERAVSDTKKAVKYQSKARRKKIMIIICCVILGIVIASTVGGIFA

As for `COc1ccc(CNC(=O)Nc2cccc(-c3nc4ccccc4s3)c2)cc1OC` [cpd5, 3-[3-(1,3-benzothiazol-2-yl)phenyl]-1-[(3,4-dimethoxyphenyl)methyl]urea], the “munc18 co-immunoprecipitated with syntaxin, cpd5/DMSO” value in test [1] (10 μM cpd5, 24 hr) is 1.032±0.034; in test [1] (30 μM cpd5, 24 hr), 0.4459±0.09367; in test [1] (100 μM cpd5, 24 hr) it was 0.4339±0.135. For the same compound, the “basal K+ current densities” value in test [2] is reported as “no significant effects”.
